IC50 data for 24 compounds are collected here from US8440666B2, “Pyridazinone compounds and P2X7 receptor inhibitors” (Nissan Chemical Industries, Ltd., priority 2007, dated 2013).

Counter-ions that a name gives are not always drawn.

The target of the assay is T1, Human P2X7 (hP2X7) receptor (Homo sapiens, UniProt Q99572).
T1 construct: myc-His (from the pcDNA3.1/myc-HisA vector); expressed in transfected cells
T1 sequence (Q99572 1-595): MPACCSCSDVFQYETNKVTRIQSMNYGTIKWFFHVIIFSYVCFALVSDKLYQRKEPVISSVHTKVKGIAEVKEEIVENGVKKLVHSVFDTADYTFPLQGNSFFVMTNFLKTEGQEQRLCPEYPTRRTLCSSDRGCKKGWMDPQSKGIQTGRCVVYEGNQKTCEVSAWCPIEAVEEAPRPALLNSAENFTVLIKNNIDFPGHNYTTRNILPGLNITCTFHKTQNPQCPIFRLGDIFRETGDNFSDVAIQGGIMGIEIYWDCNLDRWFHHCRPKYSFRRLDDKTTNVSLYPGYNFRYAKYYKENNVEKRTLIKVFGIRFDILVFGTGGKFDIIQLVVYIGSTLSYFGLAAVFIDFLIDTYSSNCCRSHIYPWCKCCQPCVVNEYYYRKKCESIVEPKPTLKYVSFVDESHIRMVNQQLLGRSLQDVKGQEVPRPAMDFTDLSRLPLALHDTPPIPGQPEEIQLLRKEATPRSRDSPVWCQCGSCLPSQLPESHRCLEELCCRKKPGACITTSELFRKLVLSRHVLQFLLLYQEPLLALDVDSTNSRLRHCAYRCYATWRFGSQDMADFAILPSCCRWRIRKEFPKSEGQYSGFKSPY
Nature of the assay: Dye assay: BzATP-induced Yo-Pro-1 uptake in HEK293 cells stably expressing hP2X7. It is filed as cell-based. The following applies: BzATP (0.1 mM)-induced Yo-Pro-1 uptake, compounds 30 min pre-treatment, 90 min incubation. The text has this:
Human P2X7 (hP2×7) was cloned from a normal human brain total RNA library by reverse transcription (using SuperScript II (Invitrogen)) and PCR (using KOD-plus-(TOYOBO)). PCR primers were designed according to hP2X7 sequence registered in GENBANK with a putative amino acid sequence consisting of 595 amino acid residues. The PCR fragments were inserted into pcDNA3.1/myc-HisA vector (Invitrogen) and sequenced for confirmation.
HEK293 cells were transfected with hP2×7/pcDNA3.1/myc-HisA by lipofection, and 1 day later, the cells were treated with 1 mg/mL G418, and resistant cells were selected by appropriately dilution. The resistant cells were cloned by reseeding at a low density.
P2X7 receptor antagonists were screened by a dye uptake assay using HEK293 cells stably expressing hP2×7. Cells were plated on a type I collagen-coated black/clear bottom 96-well plate at 20000 cells/well and a day later, treated with varying concentrations of various test compounds for 30 minutes, then treated with a dye (Yo-Pro-1) (final concentration 2 μM) and BzATP (final concentration 0.1 mM) and incubated for 90 minutes. Then, the fluorescence (indicating the BzATP-induced Yo-Pro-1 uptake mediated by the P2X7 receptor) was measured with a microplate reader (excitation wavelength: 485 nm, emission wavelength: 535 nm). The % inhibition rates were calculated and plotted against the logarithms of the concentrations to determine IC50.
For the compound `CC(C(=O)NCc1ccncc1)n1ncc(N[C@@H]2C[C@@H]3C[C@H]([C@H]2C)C3(C)C)c(Br)c1=O` (stereo partly drawn) [Synthetic Example 46, 2-{5-Bromo-6-oxo-4-[(1R,2R,3R,5S)-2,6,6-trimethylbicyclo[3.1.1]hept-3-ylamino]pyridazin-1(6H)-yl}-N-(pyridin-4-ylmethyl)propanamide], the IC50 (as a rule, the concentration needed to halve the response being measured) turned out to be 14 nM.

With `CCOc1nn(CC(=O)c2ccc(N(CC)CC)cc2)c(=O)c(Cl)c1N[C@@H]1C[C@@H]2C[C@H]([C@H]1C)C2(C)C` [Synthetic Example 140], the IC50 amounted to 15 nM. On to `CSc1c(N[C@@H]2C[C@@H]3C[C@H]([C@H]2C)C3(C)C)cnn(CC(=O)NCc2ccncc2)c1=O` [Synthetic Example 146], for which the 50% inhibitory concentration (IC50) turned out to be 70 nM. Regarding `Cc1c(N[C@@H]2C[C@@H]3C[C@H]([C@H]2C)C3(C)C)cnn(CC(=O)NCc2ccncc2)c1=O` [Synthetic Example 154, 2-{5-Methyl-6-oxo-4-[(1R,2R,3R,5S)-2,6,6-trimethylbicyclo[3.1.1]hept-3-ylamino]pyridazin-1(6H)-yl}-N-(pyridin-4-ylmethyl)acetamide], the IC50 was found to be 22 nM. The value for `C[C@@H]1[C@H]2C[C@@H](C[C@H]1Nc1cnn(CC(=S)NCc3ccncc3)c(=O)c1Br)C2(C)C` [Synthetic Example 156, 2-{5-Bromo-6-oxo-4-[(1R,2R,3R,5S)-2,6,6-trimethylbicyclo[3.1.1]hept-3-ylamino]pyridazin-1(6H)-yl}-N-(pyridin-4-ylmethyl)ethanethioamide] was 24 nM; that for `C[C@@H]1[C@H]2C[C@@H](C[C@H]1Nc1cnn(CC(=O)NCc3cc[n+]([O-])cc3)c(=O)c1Br)C2(C)C` [Synthetic Example 158, 4-[(2-{5-Bromo-6-oxo-4-[(1R,2R,3R,5S)-2,6,6-trimethylbicyclo[3.1.1]hept-3-ylamino]pyridazin-1(6H)-yl}acetamido)methyl]pyridine 1-oxide] was 45 nM. `CCN(CC)c1ccc(C(Cn2ncc(N[C@@H]3C[C@@H]4C[C@H]([C@H]3C)C4(C)C)c(Br)c2=O)=NOC)cc1` [Synthetic Example 159, 4-Bromo-2-{2-[4-(diethylamino)phenyl]-2-(methoxyimino)ethyl}-5-[(1R,2R,3R,5S)-2,6,6-trimethylbicyclo[3.1.1]hept-3-ylamino]pyridazin-3(2H)-one]: the half-inhibitory concentration (IC50) worked out at 77 nM. Take `C[C@@H]1[C@H]2C[C@@H](C[C@H]1Nc1cnn(-c3cccc(C(=O)NCc4ccncc4)c3)c(=O)c1Br)C2(C)C` [Synthetic Example 162, 3-{5-Bromo-6-oxo-4-[(1R,2R,3R,5S)-2,6,6-trimethylbicyclo[3.1.1]hept-3-ylamino]pyridazin-1(6H)-yl}-N-(pyridin-4-ylmethyl)benzamide]: the IC50 is 51 nM. On to `C[C@@H]1[C@H]2C[C@@H](C[C@H]1Nc1cnn(CC(=O)NCc3ccncc3)c(=O)c1-c1ccncc1)C2(C)C` [Synthetic Example 379, 2-[6-Oxo-5-(pyridin-4-yl)-4-{[(1R,2R,3R,5S)-2,6,6-trimethylbicyclo[3.1.1]hept-3-yl]amino}pyridazin-1(6H)-yl]-N-(pyridin-4-ylmethyl)acetamide], for which the half-maximal inhibitory concentration (IC50) stood at 240 nM. As to `CCC(NC(=O)Cn1ncc(NC2C[C@@H]3CC([C@H]2C)C3(C)C)c(OC(F)F)c1=O)c1ccncc1` (stereo partly drawn) [Synthetic Example 382], the IC50 turned out to be 25 nM.

On to `CCC(NC(=O)Cn1ncc(NC2C[C@@H]3CC([C@H]2C)C3(C)C)c(OC)c1=O)c1ccncc1` (stereo partly drawn) [Synthetic Example 385], for which the concentration for half-maximal inhibition (IC50) was determined as 39 nM. For the compound `C[C@@H]1[C@H]2C[C@@H](C[C@H]1Nc1cnn(CC(=O)NCc3ccncc3)c(=O)c1C#N)C2(C)C` [Synthetic Example 387, 2-[5-Cyano-6-oxo-4-{[(1R,2R,3R,5S)-2,6,6-trimethylbicyclo[3.1.1]hept-3-yl]amino}pyridazin-1(6H)-yl]-N-(pyridin-4-ylmethyl)acetamide], the half-maximal inhibitory concentration (IC50) was 37 nM. On to `C[C@@H]1[C@H]2C[C@@H](C[C@H]1Nc1c(O)nn(CC(=O)NCc3ccncc3)c(=O)c1Cl)C2(C)C` [Synthetic Example 390, 2-[5-Chloro-3-hydroxy-6-oxo-4-{[(1R,2R,3R,5S)-2,6,6-trimethylbicyclo[3.1.1]hept-3-yl]amino}pyridazin-1(6H)-yl]-N-(pyridin-4-ylmethyl)acetamide Hydrochloride], for which the half-inhibitory concentration (IC50) was 270 nM. The value for `C[C@@H]1[C@H]2C[C@@H](C[C@H]1Nc1cnn(Cc3ccncc3)c(=O)c1Br)C2(C)C` [Synthetic Example 394, 4-Bromo-2-(pyridin-4-ylmethyl)-5-{[(1R,2R,3R,5S)-2,6,6-trimethylbicyclo[3.1.1]hept-3-yl]amino}pyridazin-3(2H)-one] was 220 nM.

`CCC(NC(=O)Cn1ncc(N[C@@H]2C[C@@H]3C[C@H]([C@H]2C)C3(C)C)c(Cl)c1=O)C(N)=O` (stereo partly drawn) [Synthetic Example 402, 2-({[5-Chloro-6-oxo-4-{[(1R,2R,3R,5S)-2,6,6-trimethylbicyclo[3.1.1]hept-3-yl]amino}pyridazin-1(6H)-yl]acetyl}amino)butanamide]: the IC50 came to 120 nM. The value for `C[C@@H]1[C@H]2C[C@@H](C[C@H]1Nc1cnn(CC(=O)NC(C(=O)O)c3ccccc3)c(=O)c1Br)C2(C)C` (stereo partly drawn) [Synthetic Example 403, ({[5-Bromo-6-oxo-4-{[(1R,2R,3R,5S)-2,6,6-trimethylbicyclo[3.1.1]hept-3-yl]amino}pyridazin-1(6H)-yl]acetyl}amino)(phenyl)acetic Acid] was 74 nM; that for `C[C@@H]1[C@H]2C[C@@H](C[C@H]1Nc1cnn(CC(=O)NC(C(N)=O)c3ccccc3)c(=O)c1Br)C2(C)C` (stereo partly drawn) [Synthetic Example 404, N-(2-Amino-2-oxo-1-phenylethyl)-2-[5-bromo-6-oxo-4-{[(1R,2R,3R,5S)-2,6,6-trimethylbicyclo[3.1.1]hept-3-yl]amino}pyridazin-1(6H)-yl]acetamide] was 47 nM. Take `C[C@@H]1[C@H]2C[C@@H](C[C@H]1Nc1cnn(C(F)C(=O)NCc3ccncc3)c(=O)c1Br)C2(C)C` (stereo partly drawn) [Synthetic Example 405, [5-Bromo-6-oxo-4-{[(1R,2R,3R,5S)-2,6,6-trimethylbicyclo[3.1.1]hept-3-yl]amino}pyridazin-1(6H)-yl]-2-fluoro-N-(pyridin-4-ylmethyl)acetamide]: the concentration for half-maximal inhibition (IC50) came to 21 nM.

Regarding `C[C@@H]1[C@H]2C[C@@H](C[C@H]1Nc1cnn(CC(=O)NCc3ccncc3)c(=O)c1C(=O)O)C2(C)C` [Synthetic Example 406, 3-Oxo-2-{2-oxo-2-[(pyridin-4-ylmethyl)amino]ethyl}-5-{[(1R,2R,3R,5S)-2,6,6-trimethylbicyclo[3.1.1]hept-3-yl]amino}-2,3-dihydropyridazine-4-carboxylic Acid], the IC50 stood at 40 nM. The value for `C[C@@H]1[C@H]2C[C@@H](C[C@H]1Nc1cnn(-c3cccc(C(=O)NCC4(O)CCCCCC4)c3)c(=O)c1Br)C2(C)C` [Synthetic Example 409, 3-[5-Bromo-6-oxo-4-{[(1R,2R,3R,5S)-2,6,6-trimethylbicyclo[3.1.1]hept-3-yl]amino}pyridazin-1(6H)-yl]-N-[(1-hydroxycycloheptyl)methyl]benzamide] was 71 nM; that for `C[C@@H]1[C@H]2C[C@@H](C[C@H]1Nc1cnn(CC(=O)NCc3ccncc3OCC#N)c(=O)c1Cl)C2(C)C` [Synthetic Example 415] was 39 nM. As for `C[C@@H]1[C@H]2C[C@@H](C[C@H]1Nc1cnn(C3(C(=O)NCc4ccncc4)CCC3)c(=O)c1Br)C2(C)C` [Synthetic Example 420, 1-[5-Bromo-6-oxo-4-{[(1R,2R,3R,5S)-2,6,6-trimethylbicyclo[3.1.1]hept-3-yl]amino}pyridazin-1(6H)-yl]-N-(pyridin-4-ylmethyl)cyclobutanecarboxamide], the IC50 turned out to be 120 nM. As for `C[C@@H]1[C@H]2C[C@@H](C[C@H]1Nc1cnn(CC(=O)NC(CC(N)=O)c3ccncc3)c(=O)c1Br)C2(C)C` (stereo partly drawn) [Synthetic Example 428, 3-({[5-Bromo-6-oxo-4-{[(1R,2R,3R,5S)-2,6,6-trimethylbicyclo[3.1.1]hept-3-yl]amino}pyridazin-1(6H)-yl]acetyl}amino)-3-(pyridin-4-yl)propanamide], the concentration for half-maximal inhibition (IC50) was 27 nM. On to `O=C(Cn1ncc(SC23CC4CC(CC(C4)C2)C3)c(Br)c1=O)NCc1ccncc1` [Synthetic Example 430, 2-[5-Bromo-6-oxo-4-(tricyclo[3.3.1.1^3,7]dec-1-ylsulfanyl)pyridazin-1-(6H)-yl]-N-(pyridin-4-ylmethyl)acetamide], for which the 50% inhibitory concentration (IC50) was 58 nM.
